# Source: US11351178B2, “Selective HDAC6 inhibitors” (ITALFARMACO S.P.A., priority 2017, dated 2022)
# Legend:
# [1] = system: peripheral blood mononuclear cells (PBMCs); assay: Cytotoxicity on PBMCs (CellTiter 96); format: cell-based; settings: PBMC, 72 h; read-out: PBMC TOXICITY (72 h)
# Protocol: (§1) Cytotoxic activity was evaluated on B 697 […] cell line for all synthesized compounds and on peripheral blood mononuclear cells (PBMCs) for compounds showing a good potency/selectivity profile.
# (§2) Cells were seeded in plate (2×10^4 cells per well for 697, 5×10^5 cells per well for PBMCs). The test compounds (concentrations from 1.5 nM to 10000 nM for PBMCs and from 1 nM to 10000 nM for 697) were added after 24 hours and incubated 72 hours. The molecules cytotoxic activity was evaluated using CellTiter 96© Aqueous One Solution Cell Proliferation Assay (Promega), which measures the mitochondria function, following the manufacturer's instructions.
# [2] = Stability to Phase I metabolism in rat S9 liver fraction; format: in vitro ADME; settings: after 90 min, 37° C.
# Procedure, shortened: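 Compounds were incubated with rat or human liver S9 fraction at 37 °C for up to 90 min. Reactions were quenched on ice with acidified acetonitrile and analysed by HPLC-UV or LC-MS/MS. Percent remaining versus time zero and intrinsic clearance were calculated.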
# [3] = Stability in rat plasma; format: in vitro ADME; settings: after 4 hours, 37° C.
# Procedure, shortened: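 Compounds incubated at 37° C in rat or human plasma at 50 μM (UV/HPLC) or 1 or 2 μM (LC-MS/MS) for 0–4 h. Reaction stopped with acidified acetonitrile on ice; percent remaining versus initial amount and plasma half-life calculated.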
# [4] = target: T1, recombinant human HDAC6 (Homo sapiens, UniProt Q9UBN7); assay: Enzymatic screening on recombinant human HDAC6; format: biochemical; settings: Table 2; read-out: HDAC6 IC50
# T1 sequence (Q9UBN7 1-1215): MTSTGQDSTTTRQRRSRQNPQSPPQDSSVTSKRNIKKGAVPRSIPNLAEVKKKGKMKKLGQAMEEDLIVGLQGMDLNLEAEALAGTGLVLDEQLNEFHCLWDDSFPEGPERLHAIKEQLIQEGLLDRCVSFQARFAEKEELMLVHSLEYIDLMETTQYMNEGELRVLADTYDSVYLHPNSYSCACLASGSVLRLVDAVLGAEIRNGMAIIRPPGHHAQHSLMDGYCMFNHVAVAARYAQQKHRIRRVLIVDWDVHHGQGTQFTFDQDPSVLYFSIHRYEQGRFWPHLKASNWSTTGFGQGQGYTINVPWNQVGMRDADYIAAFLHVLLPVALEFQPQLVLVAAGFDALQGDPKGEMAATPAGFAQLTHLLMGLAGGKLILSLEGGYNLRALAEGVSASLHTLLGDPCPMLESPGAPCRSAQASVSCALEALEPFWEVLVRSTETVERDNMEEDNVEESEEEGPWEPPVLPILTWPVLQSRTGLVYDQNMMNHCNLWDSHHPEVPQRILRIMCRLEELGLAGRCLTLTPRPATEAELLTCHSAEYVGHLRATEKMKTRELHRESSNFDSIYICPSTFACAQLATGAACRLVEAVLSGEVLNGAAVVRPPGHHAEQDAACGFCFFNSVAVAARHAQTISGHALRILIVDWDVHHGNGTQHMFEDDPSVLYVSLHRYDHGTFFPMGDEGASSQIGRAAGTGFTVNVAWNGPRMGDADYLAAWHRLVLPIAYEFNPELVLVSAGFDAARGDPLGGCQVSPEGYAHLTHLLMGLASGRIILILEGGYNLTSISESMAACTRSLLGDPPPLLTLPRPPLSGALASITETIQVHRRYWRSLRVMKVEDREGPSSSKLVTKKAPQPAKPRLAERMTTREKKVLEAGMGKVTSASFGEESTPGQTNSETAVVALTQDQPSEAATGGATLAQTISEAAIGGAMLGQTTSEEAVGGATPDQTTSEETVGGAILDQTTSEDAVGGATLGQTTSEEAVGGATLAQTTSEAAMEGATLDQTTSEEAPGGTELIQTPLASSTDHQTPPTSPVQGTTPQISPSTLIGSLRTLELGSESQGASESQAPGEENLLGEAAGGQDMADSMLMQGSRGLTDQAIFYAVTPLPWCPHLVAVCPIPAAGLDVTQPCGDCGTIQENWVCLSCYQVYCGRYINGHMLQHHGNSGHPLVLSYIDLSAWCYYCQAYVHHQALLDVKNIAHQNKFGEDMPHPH
# Procedure, shortened: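 Substrates were Fluor de Lys, Fluor de Lys-Green or trifluoroacetyl-L-lysine, in 25 mM Tris-HCl pH 8, 130 mM NaCl, 0.05% Tween-20, 10% glycerol. They were added after isoform-dependent preincubation of recombinant human enzyme with compound at 30 °C, and the reaction also ran at 30 °C.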
# [5] = system: B 697 promyelocytic cell line; assay: Cytotoxicity on 697 cell line (CellTiter 96); format: cell-based; settings: 72 hours incubation, read-out: 697 TOXICITY
# Protocol: as §1, §2
Structure (SMILES),IC50 [1] [nM],residual percentage in rat S9 fraction [2] [%],residual percentage in rat plasma [3] [%],IC50 [4] [nM],IC50 [5] [nM]
"O=C(NO)c1ccc(Cn2nnc(-c3nccc4ccccc34)n2)cc1 [comp. 87, 4-[[5-(1-isoquinolyl)tetrazol-2-yl]methyl]benzenecarbohydroxamic acid]",6000,77,0,20,6660
"O=C(NO)c1cc(F)c(Cn2nnnc2-c2ccco2)c(F)c1 [comp. 92, 3,5-difluoro-4-[[5-(2-furyl)tetrazol-1-yl]methyl]benzenecarbohydroxamic acid]",> 10000,71,79,27,> 10000
"Cc1nc(N2CCOCC2)sc1-c1nnc(Sc2c(F)cc(C(=O)NO)cc2F)n1C [comp. 9, 3,5-difluoro-N-hydroxy-4-((4-methyl-5-(4-methyl-2-morpholinothiazo-5-yl)-4H-1,2,4-triazol-3-yl)thio)benzamide]",> 10000,75,106,79,> 10000
"Cn1c(Sc2c(F)cc(C(=O)NO)cc2F)nnc1-c1ccc(CN2CCCCC2)cc1 [comp. 16, 3,5-difluoro-N-hydroxy-4-((4-methyl-5-(4-(piperidin-1-ylmethyl)phenyl)-4H-1,2,4-triazol-3-yl)thio)benzamide]",7500,74,75,5,7880
"O=C(NO)c1ccc(Cn2nnnc2-c2ccc3ccccc3n2)cc1 [comp. 91, 4-[[5-(2-quinolyl)tetrazol-1-yl]methyl]benzenecarbohydroxamic acid]",812,8,93,3,783
"CN(Cc1ccccc1)Cc1cccc(-c2nnc(Sc3c(F)cc(C(=O)NO)cc3F)n2C)c1 [comp. 184, 4-[[5-[3-[[benzyl(methyl)amino]methyl]phenyl]-4-methyl-1,2,4-triazol-3-yl]sulfanyl]-3,5-difluoro-benzenecarbohydroxamic acid]",≥ 100000,,,17,14700
"Cn1c(Sc2c(F)cc(C(=O)NO)cc2F)nnc1-c1c(F)cccc1F [comp. 165, 4-[[5-(2,6-difluorophenyl)-4-methyl-1,2,4-triazol-3-yl]sulfanyl]-3,5-difluoro-benzenecarbohydroxamic acid]",> 10000,,,8,55300
"COC(=O)c1ccc(-c2nnn(Cc3ccc(C(=O)NO)cc3)n2)nc1 [comp. 156, methyl 6-[2-[[4-(hydroxycarbamoyl)phenyl]methyl]tetrazol-5-yl]pyridine-3-carboxylate]",> 10000,,,61,1570
"Cn1c(Sc2c(F)cc(C(=O)NO)cc2F)nnc1C(C)(C)c1cccnc1 [comp. 186, 3,5-difluoro-4-[[4-methyl-5-[1-methyl-1-(3-pyridyl)ethyl]-1,2,4-triazol-3-yl]sulfanyl]benzenecarbohydroxamic acid]",≥ 100000,9,75,23,10400
"COC(=O)c1ccc(-c2nnnn2Cc2ccc(C(=O)NO)cc2)nc1 [comp. 157, methyl 6-[1-[[4-(hydroxycarbamoyl)phenyl]methyl]tetrazol-5-yl]pyridine-3-carboxylate]",940,,,27,913
"Cn1c(Cc2cccc3cccnc23)nnc1Sc1c(F)cc(C(=O)NO)cc1F [comp. 164, 3,5-difluoro-4-[[4-methyl-5-(8-quinolylmethyl)-1,2,4-triazol-3-yl]sulfanyl]benzenecarbohydroxamic acid]",661,,,45,1400
"O=C(NO)c1cc(F)c(Cn2nnc(-c3nccc4ccccc34)n2)c(F)c1 [comp. 93, 3,5-difluoro-4-[[5-(1-isoquinolyl)tetrazol-2-yl]methyl]benzenecarbohydroxamic acid]",> 10000,53,10,22,> 10000
"COc1cccc(-c2nnc(Sc3ccc(C(=O)NO)cc3)n2C)c1 [comp. 78, 4-[[5-(3-methoxyphenyl)-4-methyl-1,2,4-triazol-3-yl]sulfanyl]benzenecarbohydroxamic acid]",6000,,,20,22200
"COC(=O)c1ccc(Cc2nnn(Cc3c(F)cc(C(=O)NO)cc3F)n2)cc1 [comp. 154, methyl 4-[[2-[[2,6-difluoro-4-(hydroxycarbamoyl)phenyl]methyl]tetrazol-5-yl]methyl]benzoate]",> 10000,,,32,22700
"Cn1c(Sc2ccc(C(=O)NO)cc2)nnc1-c1ccc2c(c1)OCO2 [comp. 84, 4-[[5-(1,3-benzodioxol-5-yl)-4-methyl-1,2,4-triazol-3-yl]sulfanyl]benzenecarbohydroxamic acid]",4500,,,21,5200
"Cn1c(Sc2c(F)cc(C(=O)NO)cc2F)nnc1C1(c2cccnc2)CC1 [comp. 178, 3,5-difluoro-4-[[4-methyl-5-[1-(3-pyridyl)cyclopropyl]-1,2,4-triazol-3-yl]sulfanyl]benzenecarbohydroxamic acid]",> 10000,,,23,50300
"Cn1c(Sc2c(F)cc(C(=O)NO)cc2F)nnc1-c1cccc(CN2CCCCC2)c1 [comp. 181, 3,5-difluoro-4-[[4-methyl-5-[3-(1-piperidylmethyl)phenyl]-1,2,4-triazol-3-yl]sulfanyl]benzenecarbohydroxamic acid]",> 10000,,,10,50300
"Cn1c(Sc2c(F)cc(C(=O)NO)cc2F)nnc1C1(c2ccccn2)CC1 [comp. 177, 3,5-difluoro-4-[[4-methyl-5-[1-(2-pyridyl)cyclopropyl]-1,2,4-triazol-3-yl]sulfanyl]benzenecarbohydroxamic acid]",> 10000,,,21,50300
"Cn1c(Sc2c(F)cc(C(=O)NO)cc2F)nnc1-c1cccc(CN2CCOCC2)c1 [comp. 182, 3,5-difluoro-4-[[4-methyl-5-[3-(morpholinomethyl)phenyl]-1,2,4-triazol-3-yl]sulfanyl]benzenecarbohydroxamic acid]",≥ 100000,,,16,50300
"NCc1ccc(-c2nnnn2Cc2c(F)cc(C(=O)NO)cc2F)cc1 [comp. 176, 4-[[5-[4-(aminomethyl)phenyl]tetrazol-1-yl]methyl]-3,5-difluoro-benzenecarbohydroxamic acid]",5300,,,55,50300
"NCc1ccc(-c2nnn(Cc3ccc(C(=O)NO)cc3)n2)cc1 [comp. 173, 4-[[5-[4-(aminomethyl)phenyl]tetrazol-2-yl]methyl]benzenecarbohydroxamic acid]",948,,,2,1890
